Reference: patent US20200046837A1, “UROGENITAL MEDICAL DEVICE FORMULATION BASED ON SUITABLE BIOCHEMICAL COMPOSITIONS FOR THE STABILIZATION OF THE ACIDITY AND THE REDOX STATE OF THE VAGINAL FLUID” (PROBIOSWISS AG, priority 2016, published 2020)
Where two headings read alike, the source gives them in different places. Blank lines part the entries; values can stand above or below the compound they belong to.

Assays:
[1] = Redox potential and pH of media formulation before and after addition of test compounds; conditions: M17-type medium
Experimental: After measurement of redox potential and pH several compounds (nitrogen and sulphur sources) were added to this medium and their effect on pH and redox potential was determined.
Redox values were read after the signal was stable for at least 30 seconds. In addition the pH was measured using a standard pH Electrode connected to a MP225 pH Meter (Mettler Toledo).

Aspergillus niger = conditions: cited from earlier work
[2] = test system: tested lactobacilli (gasseri, crispatus and jensenii)
[3] = test system: Lactobacillus jensenii KS 119.1; conditions: for OD: OD at 590 nm
Experimental: (§1) Growth was determined by measurement of optical density and pH at start, after 6 hours and after 24 hours.
(§2) All cultures were re-activated from cryopreserved (−80° C.) working stocks by cultivation on MRS agar for 1 to 3 days. A single colony from these plates was used to inoculate 5 ml of MRS broth. After incubation overnight, 10^7 cfu/ml were used to carry out the experiments.

[4] = test system: Lactobacillus gasseri KS 120.1; conditions: for OD: OD at 590 nm
Experimental: as §1, §2

[5] = test system: Lactobacillus crispatus KS 119.4; conditions: for OD: OD at 590 nm;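 as to all read-outs here: growth in MRS broth cultures, followed via optical density and pH at the start, after 6 h and after 24 h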
Saccharomyces cerevisiae = conditions: cited from earlier work
K. pneumoniae = conditions: cited from earlier work
S. aureus = conditions: cited from earlier work
E. coli = conditions: cited from earlier work
Penicillium notatum = conditions: cited from earlier work
[6] = test system: Gram-positive bacteria such as Lactobacilli; conditions: cited from earlier work
bacterial vaginosis = conditions: women with a negative redox potential; cited from earlier work

Compound: C/C=C/C=C/C(=O)[O-].[K+] [Potassium Sorbate, potassium sorbate]
microbiostatic concentration for the inhibition of growth (Aspergillus niger): 200 to 500 µg/mL | concentration required for a slight inhibition [2]: ≥ 0.5% | Interpretation ([3]; potassium sorbate 0.10%): 0 | pH ([3]; potassium sorbate 0.10%, 0 h): 4.5 | OD ([3]; potassium sorbate 0.10%, 0 h): 0.08 | pH ([3]; potassium sorbate 0.10%, 6 h): 4.5 | OD ([3]; potassium sorbate 0.10%, 6 h): 0.23 | pH ([3]; potassium sorbate 0.10%, 24 h): 4.5 | OD ([3]; potassium sorbate 0.10%, 24 h): 0.44 | Interpretation ([3]; potassium sorbate 0.50%): 1 | pH ([3]; potassium sorbate 0.50%, 0 h): 4.5 | OD ([3]; potassium sorbate 0.50%, 0 h): 0.07 | pH ([3]; potassium sorbate 0.50%, 6 h): 4.5 | OD ([3]; potassium sorbate 0.50%, 6 h): 0.11 | pH ([3]; potassium sorbate 0.50%, 24 h): 4.85 | OD ([3]; potassium sorbate 0.50%, 24 h): 0.124 | Interpretation ([3]; potassium sorbate 1.00%): 2 | pH ([3]; potassium sorbate 1.00%, 0 h): 5.03 | OD ([3]; potassium sorbate 1.00%, 0 h): 0.18 | pH ([3]; potassium sorbate 1.00%, 6 h): 5.01 | OD ([3]; potassium sorbate 1.00%, 6 h): 0.26 | pH ([3]; potassium sorbate 1.00%, 24 h): 5.09 | OD ([3]; potassium sorbate 1.00%, 24 h): 0.16 | Interpretation ([3]; potassium sorbate […]): 2 | pH ([3]; potassium sorbate […], 0 h): 5.32 | OD ([3]; potassium sorbate […], 0 h): 0.17 | pH ([3]; potassium sorbate […], 6 h): 5.18 | OD ([3]; potassium sorbate […], 6 h): 0.24 | pH ([3]; potassium sorbate […], 24 h): 5.25 | OD ([3]; potassium sorbate […], 24 h): 0.13 | Interpretation ([4]; potassium sorbate 1.00%): 1 | pH ([4]; potassium sorbate 1.00%, 0 h): 5.16 | OD ([4]; potassium sorbate 1.00%, 0 h): 0.54 | pH ([4]; potassium sorbate 1.00%, 6 h): 5 | OD ([4]; potassium sorbate 1.00%, 6 h): 0.78 | pH ([4]; potassium sorbate 1.00%, 24 h): 5.07 | OD ([4]; potassium sorbate 1.00%, 24 h): 0.97 | Interpretation ([4]; potassium sorbate […]): 1 | pH ([4]; potassium sorbate […], 0 h): 5.31 | OD ([4]; potassium sorbate […], 0 h): 0.53 | pH ([4]; potassium sorbate […], 6 h): 5.26 | OD ([4]; potassium sorbate […], 6 h): 0.73 | pH ([4]; potassium sorbate […], 24 h): 5.26 | OD ([4]; potassium sorbate […], 24 h): 0.72 | Interpretation ([5]; potassium sorbate 0.01%): 0 | pH ([5]; potassium sorbate 0.01%, 0 h): 4.71 | OD ([5]; potassium sorbate 0.01%, 0 h): 0.7 | pH ([5]; potassium sorbate 0.01%, 6 h): 4.42 | OD ([5]; potassium sorbate 0.01%, 6 h): 1.36 | pH ([5]; potassium sorbate 0.01%, 24 h): 4.35 | OD ([5]; potassium sorbate 0.01%, 24 h): 1.47 | Interpretation ([5]; potassium sorbate 0.05%): 0 | pH ([5]; potassium sorbate 0.05%, 0 h): 4.69 | OD ([5]; potassium sorbate 0.05%, 0 h): 0.6 | pH ([5]; potassium sorbate 0.05%, 6 h): 4.43 | OD ([5]; potassium sorbate 0.05%, 6 h): 1.16 | pH ([5]; potassium sorbate 0.05%, 24 h): 4.32 | OD ([5]; potassium sorbate 0.05%, 24 h): 1.24 | Interpretation ([5]; potassium sorbate 0.10%): 0 | pH ([5]; potassium sorbate 0.10%, 0 h): 4.7 | OD ([5]; potassium sorbate 0.10%, 0 h): 0.68 | pH ([5]; potassium sorbate 0.10%, 6 h): 4.48 | OD ([5]; potassium sorbate 0.10%, 6 h): 1.34 | pH ([5]; potassium sorbate 0.10%, 24 h): 4.44 | OD ([5]; potassium sorbate 0.10%, 24 h): 1.24 | Interpretation ([5]; potassium sorbate 0.50%): 0 | pH ([5]; potassium sorbate 0.50%, 0 h): 4.97 | OD ([5]; potassium sorbate 0.50%, 0 h): 0.67 | pH ([5]; potassium sorbate 0.50%, 6 h): 4.73 | OD ([5]; potassium sorbate 0.50%, 6 h): 1.24 | pH ([5]; potassium sorbate 0.50%, 24 h): 4.77 | OD ([5]; potassium sorbate 0.50%, 24 h): 1.15 | Interpretation ([5]; potassium sorbate 1.00%): 1 | pH ([5]; potassium sorbate 1.00%, 0 h): 5.8 | OD ([5]; potassium sorbate 1.00%, 0 h): 0.65 | pH ([5]; potassium sorbate 1.00%, 6 h): 5.01 | OD ([5]; potassium sorbate 1.00%, 6 h): 1.13 | pH ([5]; potassium sorbate 1.00%, 24 h): 5.08 | OD ([5]; potassium sorbate 1.00%, 24 h): 0.96 | Interpretation ([5]; potassium sorbate […]): 1 | pH ([5]; potassium sorbate […], 0 h): 5.32 | OD ([5]; potassium sorbate […], 0 h): 0.64 | pH ([5]; potassium sorbate […], 6 h): 5.2 | OD ([5]; potassium sorbate […], 6 h): 0.99 | pH ([5]; potassium sorbate […], 24 h): 5.26 | OD ([5]; potassium sorbate […], 24 h): 0.76 | microbiostatic concentration for the inhibition of growth (Saccharomyces cerevisiae): 50 to 100 µg/mL | microbiostatic concentration for the inhibition of growth (K. pneumoniae): 50 to 100 µg/mL | microbiostatic concentration for the inhibition of growth (S. aureus): 50 to 100 µg/mL | microbiostatic concentration for the inhibition of growth (E. coli): 50 to 100 µg/mL | microbiostatic concentration for the inhibition of growth (Penicillium notatum): 200 to 500 µg/mL

Compound: Clc1ccccc1C(c1ccccc1)(c1ccccc1)n1ccnc1 [Clotrimazole]
activity against Gram-positive bacteria [6]: bactericidal activity

Compound: Cc1ncc([N+](=O)[O-])n1CCO [metronidazole]
vaginal redox potential after a successful cure (bacterial vaginosis): returned to a positive one

The remaining lines, values ahead:

effect of the added compound on the redox potential [1]: high positive redox potential
Compound: N[C@@H](CSSC[C@H](N)C(=O)O)C(=O)O [Cystine]

redox potential (Eh) of the medium after addition of the compound [1]: −36 mV
Compound: O=S(O)(O)=S [thiosulfate, Na-Thiosulfate]

redox potential (Eh) of the medium after addition of the compound [1]: ~300 mV
Compound: N[C@@H](CCC(=O)O)C(=O)O [glutamic acid, L-Glutamic acid]

redox potential (Eh) of the medium after addition of the compound [1]: −103 mV
Compound: N[C@@H](CS)C(=O)O [Cysteine]

effect of the added compound on the redox potential [1]: high positive redox potential
Compound: CS(C)(=O)=O [MSM, dimethylsulfone]
